“Also recorded” adds a separate entry of the source. Like-named read-outs stand apart in the source and are kept apart here.
Columns and labels:
[1] = test system: Ad8-luc virion (nonreplicative R5-pseudotyped HIV-1) in HEK-293T CD4+ CCR5+ cells; assay: Infection of S1PR1-transfected HEK-293T CD4+ CCR5+ cells with Ad8-luc virion (luciferase activity); type: cell-based
Method: In order to test the influence of the expression of S1PR1 on infection with HIV-1, 50 000 HEK-293T CD4+ CCR5+ cells were transiently transfected by lipofection, by incubating them for 24 hours with a mixture of 50 ng of CMV-S1PR1 plasmid, 20 ng of the pRL-TK-Renilla Luciferase plasmid (Promega) and 0.5 μl of lipofectamine (Lipofectamine™ 2000, Invitrogen) in 150 μl of DMEM medium, 10% FCS, in a 96-well plate, incubated beforehand with a solution of D-polylysine for 30 min. […] 24 h after the transfection, the wells are washed with DMEM (BioWhittaker), and then the cells are infected with 40 ng of the Ad8-luc virion in 180 μl of culture medium. […] 24 h after the infection, the cells are washed once with culture medium, and put back in culture with 200 μl of DMEM, 10% FCS. 40 h to 48 h after the infection, the cells are washed once with PBS, and lysed with 50 μl of buffer, and then the Firefly and Renilla luciferase activities are measured sequentially in a luminometer using the Dual-Luciferase® Reporter Assay system (Promega, cat: E1910). The Renilla luciferase activity is used as a measure of the level of cell metabolism.

[2] = test system: Ad8-luc virus in HOS CCR5 lacZ line; assay: Infection of HOS CCR5 lacZ cells (not expressing S1PR1) with Ad8-luc virus (luciferase activity); type: cell-based, HIV-1
[3] = test system: Ad8-luc virus in peripheral blood mononuclear cells (PBMCs); assay: Infection of PBMCs with Ad8-luc virus (luciferase activity); type: cell-based, HIV-1
Method: The HOS-CD4 line (AIDS Reagent Program, Rockville, Md.) and the HEK-293T line (simian virus 40 T antigen-transformed human embryonic kidney 293T, Genethon) are cultured in DMEM medium supplemented with 10% of FCS (fetal calf serum), 10 mM of glutamax-1, 100 U/ml of penicillin and 100 μg/ml of streptomycin. The HEK-293T CD4+ CCR5+ line (gift from Martine Biard-Piechaczyk, Institute of Biology, Montpellier, France) was obtained by transfection of CD4 and CCR5 genes using the HEK-293T line. The human PBMCs in culture are isolated from blood of healthy donors by density centrifugation on lymphocyte separation medium (Eurobio) and cultured in RPMI medium supplemented like the DMEM at 37° C., 5% CO2.

[4] = test system: HIV-1 strain JR-CSF (R5 strain); assay: Humanized SCID mice (hu-PBL-SCID) infected with HIV-1, viral load by qPCR; type: in vivo, mouse (SCID, grafted with human PBMCs); details: FTY720 0.3 mg per kg per day by gavage from D-1, viral load D6, 9, 12; p=0.023 (FIG. 6)
Method: SCID mice have the cb17/Icr-Prkdc^scid/Crl genotype. These immunodepressed mice are housed in an A3/L3 animal house in cages with a filter lid, in a ventilated cage rack. After one week of acclimatization, the animals are reconstituted by intraperitoneal injection of 30×10^6 PBMCs obtained by density centrifugation of the leukocytes of an uncertified cytapheresis annulus from a healthy volunteer donor. The reconstitution is evaluated on the 13th day by assaying the human immunoglobulins (Igs) present in the serum of the mice by means of an Elisa assay using the anti-human whole Ig-PO antibody (MP Biomedical, cat n° 55230). The mice whose total Ig concentration is greater than 100 μg/ml are kept for the experiment, and are infected 14 days after the reconstitution with the HIV-1 strain JR-CSF (R5 strain) at 1000 TCID50 in 100 μl. Daily gavage with 100 μl of FTY720 (Cayman, sold by Interchim ref. BM8045) dissolved at 60 μg/ml in distilled water is begun one day before the infection and continued for 12 days. The untreated mice are given the same volume of distilled water by gavage. […] The viremies are evaluated by quantification of the viral ARN in the plasma of the mice by qPCR with the AmpliPrep/COBAS TaqMan HIV-1 test (Roche Diagnostics, ref. 05212294190). […]

[5] = HOS CCR5 lacZ cells not expressing S1PR1, 33 μM preincubation for one hour (FIG. 3), p<0.01

## CCCCCCCCc1ccc(CC[C@](N)(CO)COP(=O)(O)O)cc1 [FTY720-P]
[1]; S1PR1-expressing HEK-293T CD4+ CCR5+ cells, FTY720-P 80 ng/ml for 30 min before addition of the virus, unstimulated S1PR1 alone gives 60%
  reduction of infection compared with the empty plasmid control: 90%
[2]
  decrease of the HIV infection: approximately 50%
[3]; PBMCs from a healthy donor, 1 μM preincubation, Ad8-luc for 72 h (FIG. 4)
  inhibition of the infection: approximately 60%

## CCCCCCCCCCCCC/C=C/[C@@H](O)[C@@H](N)COP(=O)(O)O [Sphingosine-1-phosphate, sphingosine-1-phosphate]
[2]; [5]
  decrease of the HIV infection: approximately 50%
[3]; Human immunodeficiency virus 1, PBMC, read-out: inhibition of the infection
  inhibition at 1 µM: ~60%

## CCCCCCCCc1ccc(CCC(N)(CO)CO)cc1.Cl [FTY720, 2-amino-2-[2-(4-octylphenyl)ethyl]propane-1,3-diol]
[2]; [5]
  decrease of the HIV infection: approximately 50%
[4]
  viremia / infection of the treated animals versus untreated group: clear decrease in viremia; also recorded: significant decrease

## FC(F)(F)c1cccc(-c2noc(-c3cc(-c4ccccc4)c(C(F)(F)F)s3)n2)c1 [SEW2871]
[2]; [5]
  decrease of the HIV infection: No significant difference; also recorded: does not significantly modify the infection

B1: MIP1-β: a CCR5 ligand known to inhibit HIV infection (R&D systems) (protein, UniProt P13236 24-92, looked up)
C-C motif chemokine 4: APMGSDPPTACCFSYTARKLPRNFVVDYYETSSLCSQPAVVFQTKRSKQVCADPSESWVQEYVYDLELN
[1]; same conditions, anti-CCR5 antibody 10 μg/ml, MIP-1β 100 ng/ml, 30 min before infection
  decrease in infection compared with that of FTY720-P: of the same level
